The subject of the assay is Foxp3+Helios+ Tregs. As to the kind of experiment: Foxp3 and Helios staining (flow cytometry) of Tregs stimulated/expanded in vitro with anti-CD3/anti-CD28 and IL-2. In kind it is cell-based, human. The text has this: To determine if a correlation exists between Helios expression and TSDR methylation status, four different CD4^+ subsets (Foxp3^+Helios^+, Foxp3^+Helios^−, Foxp3^−Helios^+, and Foxp3^−Helios^−) were isolated and expression of various proteins analyzed. Briefly, human PBMCs were obtained from 20-80 year-old healthy male donors by Department of Transfusion Medicine at National Institutes of Health. CD4^+CD25^hiCD127^− Tregs were isolated by cell sorting on a FACSAria. Sorted Treg (0.2×10^6) cells were re-suspended in complete RPMI-1640 supplemented with 10% heat-inactivated fetal calf serum, and stimulated in plates coated with anti-CD3ϵ (10 μg/ml) and anti-CD28 (2 μg/ml) in the presence of IL-2 (150 U/ml) for 5-6 days. Stimulated cells were washed in RPMI 1640-10 media twice and expanded in complete RPMI 1640-10 with recombinant IL-2 (150 U/ml) for 5-10 days in the presence of Treg-expander magnetic beads (Cell:Bead=4:1). To evaluate the purity of sorted Tregs, cells were stained with anti-Foxp3 and anti-Helios (Biolegend) in Foxp3-staining buffer (eBioscience). All flow cytometry was performed on a FACS LSRII flow cytometer (Becton Dickinson) and analyzed with FlowJo software (TreeStar).
Initially, two potential candidates were selected for testing: TGFβ, and the toll-like receptor 9 (TLR9) agonist CpG oligodeoxynucleotide (ODN). […]
In general terms: In flow cytometry, cells or beads pass a laser one at a time.

Take `CCCCNc1nc(N)c2[nH]c(=O)n(Cc3ccc(C(=O)NCC(=O)O)cc3)c2n1` [CL264]: for the setting “TLR 7 / TLR 8 agonists at 10 μM compared with CpG ODN (FIG. 6B)”, the “effect on the stabilization of Foxp3+Helios+ T cells” value was “Neither the TLR 8 nor the TLR 7 agonists had any effect”.
Take “TGFβ: TGFβ, candidate factor added at 5 ng/ml during Treg stimulation”: under “CD4+CD25+ cells, 5 days with agent alone, then 7 days without (FIG. 2B)”, the “stabilization / increase of the Foxp3+Helios+ population, single agents” value was “modest increase”.

For the origin of these results see patent US11060059B2, “Methods of producing T cell populations enriched for stable regulatory T-cells” (The USA, as represented by the Secretary, Department of …, priority 2011, dated 2021).
